{"source": "ChEMBL document CHEMBL5113491", "about": "“Discovery of N-benzylarylamide derivatives as novel tubulin polymerization inhibitors capable of activating the Hippo pathway” (Eur J Med Chem, 2022)", "key": {"KYSE-450": {"test_system": "KYSE-450", "test": "Antiproliferative activity against human KYSE-450 cells assessed as inhibition of cell growth measured after 48 hrs by MTT assay", "format": "functional, cell-based", "conditions": "KYSE-450, 48 h"}, "SGC-7901 [1]": {"test_system": "SGC-7901", "test": "Antiproliferative activity against human SGC-7901 cells assessed as inhibition of cell growth measured after 48 hrs by MTT assay", "format": "functional, cell-based", "conditions": "SGC-7901, 48 h"}, "DU-145": {"test_system": "DU-145", "test": "Antiproliferative activity against human DU-145 cells assessed as inhibition of cell growth measured after 48 hrs by MTT assay", "format": "functional, cell-based", "conditions": "DU-145, 48 h"}, "A549": {"test_system": "A549", "test": "Antiproliferative activity against human A549 cells assessed as inhibition of cell growth measured after 48 hrs by MTT assay", "format": "functional, cell-based", "conditions": "A549, 48 h"}, "ECa-109 cell line": {"test_system": "ECa-109 cell line", "test": "Antiproliferative activity against human EC109 cells assessed as inhibition of cell growth measured after 48 hrs by MTT assay", "format": "functional, cell-based", "conditions": "ECa-109, 48 h"}, "TE-1": {"test_system": "TE-1", "test": "Antiproliferative activity against human TE-1 cells assessed as inhibition of cell growth measured after 48 hrs by MTT assay", "format": "functional, cell-based", "conditions": "TE-1, 48 h"}, "SMMC-7721": {"test_system": "SMMC-7721", "test": "Antiproliferative activity against human SMMC-7721 cells assessed as inhibition of cell growth measured after 48 hrs by MTT assay", "format": "functional, cell-based", "conditions": "SMMC-7721, 48 h"}, "MGC-803 [2]": {"test_system": "MGC-803", "test": "Antiproliferative activity against human MGC-803 cells assessed as inhibition of cell growth at 15 to 45 […] by MTT assay", "format": "functional, cell-based", "conditions": "dose 15-45 µmol/L, time <= 72.0 hrs, TDE = time-dependent effect"}, "SGC-7901 [3]": {"test_system": "SGC-7901", "test": "Antiproliferative activity against human SGC-7901 cells assessed as inhibition of cell growth measured upto 72 hrs by MTT assay", "format": "functional, cell-based", "conditions": "dose 15-45 µmol/L, DDE = dose-dependent effect"}, "HUVEC": {"test_system": "HUVEC", "test": "Cytotoxicity against human HUVEC cells assessed as reduction in cell viability at 5 to 40 nM measured after 48 hrs by MTT assay", "format": "toxicity, cell-based", "conditions": "0.04 µM, dose 5-40 nM"}, "Tubulin (Homo sapiens)": {"target": "Tubulin (Homo sapiens) (UniProt P68371+Q9H4B7+P0DPH7+P68366+Q13509+Q71U36+P04350+Q3ZCM7+P07437+P68363+Q9BQE3+Q6PEY2+Q13885+Q9BVA1+Q9BUF5)", "test": "Induction of microtubule disruption in human SGC-7901 cells measured after 48 hrs by DAPI staining based immunofluorescence assay", "format": "cell-based", "conditions": "dose 15-45 nmol/L, DDE = dose-dependent effect"}, "MGC-803 [4]": {"test_system": "MGC-803", "test": "Activation of MST in human MGC-803 cells assessed as increase in MST phosphorylation measured after 48 hrs by Western blot analysis", "format": "cell-based", "conditions": "filed as activator, dose 15-45 nmol/L, DDE = dose-dependent effect"}, "SGC-7901 [5]": {"test_system": "SGC-7901", "test": "Activation of MST in human SGC-7901 cells assessed as increase in MST phosphorylation measured after 48 hrs by Western blot analysis", "format": "cell-based", "conditions": "filed as activator, dose 15-45 nmol/L, DDE = dose-dependent effect"}, "SGC-7901 [6]": {"test_system": "SGC-7901", "test": "Activation of LATS in human SGC-7901 cells assessed as increase in LATS phosphorylation measured after 48 hrs by Western blot analysis", "format": "cell-based", "conditions": "filed as activator, dose 15-45 nmol/L, DDE = dose-dependent effect"}, "MGC-803 [7]": {"test_system": "MGC-803", "test": "Downregulation of YAP protein expression in human MGC-803 cells measured after 48 hrs by Western blot analysis", "format": "functional, cell-based", "conditions": "dose 15-45 nmol/L, DDE = dose-dependent effect"}, "MGC-803 [8]": {"test_system": "MGC-803", "test": "Downregulation of Axl protein expression in human MGC-803 cells at 15 to 45 nmol/L measured after 48 hrs by Western blot analysis", "format": "functional, cell-based", "conditions": "dose 15-45 nmol/L"}, "SGC-7901 [9]": {"test_system": "SGC-7901", "test": "Downregulation of Axl protein expression in human SGC-7901 cells at 15 to 45 nmol/L measured after 48 hrs by Western blot analysis", "format": "functional, cell-based", "conditions": "dose 15-45 nmol/L"}, "SGC-7901 [10]": {"test_system": "SGC-7901", "test": "Induction of cell cycle arrest in human SGC-7901 cells assessed as increase in G2/M phase cells measured after 24 hrs by flow cytometry", "format": "functional, cell-based", "conditions": "dose 15-45 nmol/L, DDE = dose-dependent effect"}, "MGC-803 [11]": {"test_system": "MGC-803", "test": "Induction of cell cycle arrest in human MGC-803 cells assessed as increase in G2/M phase cells at 45 nmol/L measured after 24 hrs by flow cytometry (reference value: 19.38%)", "format": "functional"}, "MGC-803 [12]": {"test_system": "MGC-803", "test": "Induction of G2/M phase cell cycle arrest in human MGC-803 cells assessed as decrease in cyclin A1 expression at 15 to 45 nmol/L measured after 48 hrs by Western blot analysis", "format": "functional, cell-based", "conditions": "dose 15-45 nmol/L"}, "SGC-7901 [13]": {"test_system": "SGC-7901", "test": "Induction of G2/M phase cell cycle arrest in human SGC-7901 cells assessed as decrease in cyclin A1 expression at 15 to 45 nmol/L measured after 48 hrs by Western blot analysis", "format": "functional, cell-based", "conditions": "dose 15-45 nmol/L"}, "MGC-803 [14]": {"test_system": "MGC-803", "test": "Induction of G2/M phase cell cycle arrest in human MGC-803 cells assessed as decrease in cyclin A2 expression at 15 to 45 nmol/L measured after 48 hrs by Western blot analysis", "format": "functional, cell-based", "conditions": "dose 15-45 nmol/L"}, "SGC-7901 [15]": {"test_system": "SGC-7901", "test": "Induction of G2/M phase cell cycle arrest in human SGC-7901 cells assessed as decrease in cyclin A2 expression at 15 to 45 nmol/L measured after 48 hrs by Western blot analysis", "format": "functional, cell-based", "conditions": "dose 15-45 nmol/L"}, "MGC-803 [16]": {"test_system": "MGC-803", "test": "Induction of G2/M phase cell cycle arrest in human MGC-803 cells assessed as decrease in p-cdc2 (T161) expression at 15 to 45 nmol/L measured after 48 hrs by Western blot analysis", "format": "functional, cell-based", "conditions": "dose 15-45 nmol/L"}, "[17]": {"test": "Induction of cell apoptosis in human MGC-803 cells assessed as increase in apoptotic cells at 45 nmol/L measured after 48 hrs by Annexin V/PI staining based flow cytometric analysis (reference value: 21.96%)", "format": "functional"}, "[18]": {"test": "Induction of cell apoptosis in human SGC-7901 cells assessed as increase in apoptotic cells at 45 nmol/L measured after 48 hrs by Annexin V/PI staining based flow cytometric analysis (reference value: 9.28%)", "format": "functional"}, "MGC-803 [19]": {"test_system": "MGC-803", "test": "Induction of apoptosis in human MGC-803 cells assessed as decrease in c-IAP1 protein expression measured after 48 hrs by Western blot analysis", "format": "functional, cell-based", "conditions": "dose 15-45 nmol/L, DDE = dose-dependent effect"}, "SGC-7901 [20]": {"test_system": "SGC-7901", "test": "Induction of apoptosis in human SGC-7901 cells assessed as decrease in c-IAP1 protein expression measured after 48 hrs by Western blot analysis", "format": "functional, cell-based", "conditions": "dose 15-45 nmol/L, DDE = dose-dependent effect"}, "SGC-7901 [21]": {"test_system": "SGC-7901", "test": "Induction of apoptosis in human SGC-7901 cells assessed as decrease in Bcl-xl protein expression measured after 48 hrs by Western blot analysis", "format": "functional, cell-based", "conditions": "dose 15-45 nmol/L, DDE = dose-dependent effect"}, "SGC-7901 [22]": {"test_system": "SGC-7901", "test": "Induction of apoptosis in human SGC-7901 cells assessed as increase in cleaved caspase 9 expression at 15 to 45 nmol/L measured after 48 hrs by Western blot analysis", "format": "functional, cell-based", "conditions": "dose 15-45 nmol/L"}, "SGC-7901 [23]": {"test_system": "SGC-7901", "test": "Induction of apoptosis in human SGC-7901 cells assessed as increase in cleaved PARP expression at 15 to 45 nmol/L measured after 48 hrs by Western blot analysis", "format": "functional, cell-based", "conditions": "dose 15-45 nmol/L"}, "SGC-7901 [24]": {"test_system": "SGC-7901", "test": "Induction of morphological changes in human SGC-7901 cells assessed as change in concentration of nuclei at 15 to 45 nmol/L measured after 48 hrs by DAPI staining based microscopic analysis", "format": "functional, cell-based", "conditions": "dose 15-45 nmol/L"}, "SGC-7901 [25]": {"test_system": "SGC-7901", "test": "Induction of morphological changes in human SGC-7901 cells assessed as change in concentration of nuclei at 15 to 45 nmol/L measured after 48 hrs by calcein-AM/PI staining based microscopic analysis", "format": "functional, cell-based", "conditions": "dose 15-45 nmol/L"}, "MGC-803 [26]": {"test_system": "MGC-803", "test": "Induction of morphological changes in human MGC-803 cells assessed as decrease in density at 15 to 45 nmol/L measured after 48 hrs by bright field microscopic analysis", "format": "functional, cell-based", "conditions": "dose 15-45 nmol/L"}, "SGC-7901 [27]": {"test_system": "SGC-7901", "test": "Induction of morphological changes in human SGC-7901 cells assessed as decrease in density at 15 to 45 nmol/L measured after 48 hrs by bright field microscopic analysis", "format": "functional, cell-based", "conditions": "dose 15-45 nmol/L"}}, "note": "Active and inactive are the calls of the source. The rule behind the calls is not given here.", "data": [{"smiles": "C/C=C/C(=O)N(Cc1ccc(OC)c(O)c1)c1cc(OC)c(OC)c(OC)c1", "values": [{"measurement": "IC50", "setting": "KYSE-450", "value": 0.067, "unit": "µM"}, {"measurement": "IC50", "setting": "SGC-7901 [1]", "value": 0.025, "unit": "µM"}, {"measurement": "IC50", "setting": "DU-145", "value": 0.081, "unit": "µM"}, {"measurement": "IC50", "setting": "A549", "value": 0.059, "unit": "µM"}, {"measurement": "IC50", "setting": "ECa-109 cell line", "value": 0.085, "unit": "µM"}, {"measurement": "IC50", "setting": "TE-1", "value": 0.094, "unit": "µM"}, {"measurement": "IC50", "setting": "SMMC-7721", "value": 0.043, "unit": "µM"}, {"measurement": "Activity", "setting": "MGC-803 [2]", "value": "Tde"}, {"measurement": "Activity", "setting": "SGC-7901 [3]", "value": "Dde"}, {"measurement": "Activity", "setting": "HUVEC", "value": "Non-Toxic"}, {"measurement": "Activity", "setting": "Tubulin (Homo sapiens)", "value": "Dde"}, {"measurement": "Activity", "setting": "MGC-803 [4]", "value": "Dde"}, {"measurement": "Activity", "setting": "SGC-7901 [5]", "value": "Dde"}, {"measurement": "Activity", "setting": "SGC-7901 [6]", "value": "Dde"}, {"measurement": "Activity", "setting": "MGC-803 [7]", "value": "Dde"}, {"measurement": "Activity", "setting": "MGC-803 [8]", "value": "Active"}, {"measurement": "Activity", "setting": "SGC-7901 [9]", "value": "Active"}, {"measurement": "Activity", "setting": "SGC-7901 [10]", "value": "Dde"}, {"measurement": "Activity", "setting": "MGC-803 [11]", "value": 76.97, "unit": "%"}, {"measurement": "Activity", "setting": "MGC-803 [12]", "value": "Active"}, {"measurement": "Activity", "setting": "SGC-7901 [13]", "value": "Active"}, {"measurement": "Activity", "setting": "MGC-803 [14]", "value": "Active"}, {"measurement": "Activity", "setting": "SGC-7901 [15]", "value": "Active"}, {"measurement": "Activity", "setting": "MGC-803 [16]", "value": "Active"}, {"measurement": "Activity", "setting": "[17]", "value": 76.08, "unit": "%"}, {"measurement": "Activity", "setting": "[18]", "value": 63.51, "unit": "%"}, {"measurement": "Activity", "setting": "MGC-803 [19]", "value": "Dde"}, {"measurement": "Activity", "setting": "SGC-7901 [20]", "value": "Dde"}, {"measurement": "Activity", "setting": "SGC-7901 [21]", "value": "Dde"}, {"measurement": "Activity", "setting": "SGC-7901 [22]", "value": "Active"}, {"measurement": "Activity", "setting": "SGC-7901 [23]", "value": "Active"}, {"measurement": "Activity", "setting": "SGC-7901 [24]", "value": "Active"}, {"measurement": "Activity", "setting": "SGC-7901 [25]", "value": "Active"}, {"measurement": "Activity", "setting": "MGC-803 [26]", "value": "Active"}, {"measurement": "Activity", "setting": "SGC-7901 [27]", "value": "Active"}]}]}
